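Step 1: Grow cells in 96-well plates. Step 2: Expose to compound for 48 hours at 5 concentrations. Step 3: Interpolate endpoints linearly; if unreached, use highest concentration. The concentration for 50% growth inhibition is given as GI50. TGI: concentration producing complete growth inhibition.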
Key:
Assay in all cases: NCI anticancer screen, dose series, 48 h; in the data active = GI50 below about 0.43 µM; inactive = the rest
[1] = tested on: DU-145 prostate
[2] = tested on: U251 CNS
[3] = tested on: OVCAR-3 ovarian
[4] = tested on: NCI-H522 lung
[5] = tested on: IGROV1 ovarian
[6] = tested on: K-562 leukemia
[7] = tested on: KM12 colon
[8] = tested on: T-47D breast
[9] = tested on: SR leukemia
[10] = tested on: UACC-257 melanoma
[11] = tested on: LOX IMVI melanoma
[12] = tested on: PC-3 prostate
[13] = tested on: SNB-75 CNS
[14] = tested on: HCT-15 colon
[15] = tested on: HOP-62 NSCLC
[16] = tested on: MCF7 breast
[17] = tested on: NCI/ADR-RES ovarian
[18] = tested on: SK-MEL-5 melanoma
[19] = tested on: SF-295 CNS
[20] = tested on: MALME-3M melanoma
[21] = tested on: HCC-2998 colon
[22] = tested on: HL-60(TB) leukemia
[23] = tested on: NCI-H460 lung
[24] = tested on: UACC-62 melanoma
[25] = tested on: CAKI-1 renal
[26] = tested on: SK-MEL-28 melanoma
[27] = tested on: A498 renal
[28] = tested on: TK-10 renal
[29] = tested on: MDA-MB-231 breast
[30] = tested on: SK-OV-3 ovarian
[31] = tested on: CCRF-CEM leukemia
[32] = tested on: SK-MEL-2 melanoma
[33] = tested on: NCI-H226 lung
[34] = tested on: OVCAR-4 ovarian
[35] = tested on: RXF 393 renal
[36] = tested on: SNB-19 CNS
[37] = tested on: EKVX NSCLC
[38] = tested on: SN12C renal
[39] = tested on: OVCAR-5 ovarian
[40] = tested on: NCI-H23 lung
[41] = tested on: RPMI-8226 leukemia
[42] = tested on: 786-0 renal
[43] = tested on: HT29 colon
[44] = tested on: HOP-92 NSCLC
[45] = tested on: COLO 205 colon
[46] = tested on: MDA-MB-435
[47] = tested on: OVCAR-8 ovarian
[48] = tested on: SF-268 CNS
[49] = tested on: MOLT-4 leukemia
[50] = tested on: SW-620 colon
[51] = tested on: M14 melanoma
[52] = tested on: HS 578T breast
[53] = tested on: A549 NSCLC
[54] = tested on: SF-539 CNS
[55] = tested on: UO-31 renal
[56] = tested on: ACHN renal
[57] = tested on: BT-549 breast
[58] = tested on: HCT-116 colon

c1ccc(-c2c(-c3ccccc3)[n+](Cc3ccc4ccccc4c3)c(-c3cccc4ccccc34)n2Cc2ccc3ccccc3c2)cc1
949 nM: TGI [35]
2940 nM: TGI [17]
828 nM: TGI [33]
1540 nM: TGI [47]
1660 nM: TGI [31]
743 nM: TGI [56]
inactive: GI50 [17] 1300 nM
1250 nM: TGI [58]
1460 nM: TGI [2]
1530 nM: TGI [9] | TGI [28]
978 nM: TGI [4]
296 nM: TGI [18]
398 nM: TGI [27]
1400 nM: TGI [24]
748 nM: TGI [40]
458 nM: TGI [19]
1390 nM: TGI [5]
479 nM: TGI [44]
1010 nM: TGI [25]
955 nM: TGI [13]
1330 nM: TGI [50]
1780 nM: TGI [15]
1440 nM: TGI [1] | TGI [51]
1140 nM: TGI [23] | TGI [38]
active: GI50 [1] 262 nM | GI50 [2] 74.7 nM | GI50 [3] 94.5 nM | GI50 [4] 253 nM | GI50 [5] 147 nM | GI50 [6] 45.1 nM | GI50 [7] 98.7 nM | GI50 [8] 64.8 nM | GI50 [9] 192 nM | GI50 [10] 221 nM | GI50 [11] 150 nM | GI50 [12] 64.1 nM | GI50 [13] 192 nM | GI50 [14] 327 nM | GI50 [15] 301 nM | GI50 [16] 169 nM | GI50 [18] 155 nM | GI50 [19] 90.6 nM | GI50 [20] 91 nM | GI50 [21] 131 nM | GI50 [22] 34.2 nM | GI50 [23] 154 nM | GI50 [24] 286 nM | GI50 [25] 265 nM | GI50 [26] 191 nM | GI50 [27] < 47.1 nM | GI50 [28] 239 nM | GI50 [29] 220 nM | GI50 [30] 207 nM | GI50 [31] 128 nM | GI50 [32] 140 nM | GI50 [33] 203 nM | GI50 [34] 187 nM | GI50 [35] 220 nM | GI50 [36] 108 nM | GI50 [37] 187 nM | GI50 [38] 127 nM | GI50 [39] 321 nM | GI50 [40] 146 nM | GI50 [41] 32.6 nM | GI50 [42] 231 nM | GI50 [43] 46.6 nM | GI50 [44] 79.1 nM | GI50 [45] 76.5 nM | GI50 [46] 284 nM | GI50 [47] 153 nM | GI50 [48] 220 nM | GI50 [49] 233 nM | GI50 [50] 151 nM | GI50 [51] 187 nM | GI50 [52] 302 nM | GI50 [53] 166 nM | GI50 [54] 371 nM | GI50 [55] 306 nM | GI50 [56] 249 nM | GI50 [57] 122 nM | GI50 [58] 92.7 nM
1880 nM: TGI [26]
2200 nM: TGI [52]
1100 nM: TGI [43]
1570 nM: TGI [53]
1280 nM: TGI [3] | TGI [55]
1630 nM: TGI [42]
> 100000 nM: TGI [6]
295 nM: TGI [41]
1210 nM: TGI [12] | TGI [14]
958 nM: TGI [10]
1760 nM: TGI [48]
1270 nM: TGI [8] | TGI [49]
758 nM: TGI [7] | TGI [32]
1420 nM: TGI [36]
228 nM: TGI [22] | TGI [45]
973 nM: TGI [30]
1430 nM: TGI [37]
496 nM: TGI [11]
1350 nM: TGI [39]
1500 nM: TGI [21] | TGI [54]
1000 nM: TGI [20] | TGI [29]
1070 nM: TGI [16]
1120 nM: TGI [34]
1180 nM: TGI [46] | TGI [57]

CC(=O)C(C)CCOC1(C)OCCC1C (centres undefined)
> 100000 nM: TGI [1] | TGI [2] | TGI [3] | TGI [4] | TGI [5] | TGI [6] | TGI [7] | TGI [8] | TGI [9] | TGI [10] | TGI [11] | TGI [12] | TGI [13] | TGI [14] | TGI [15] | TGI [16] | TGI [17] | TGI [18] | TGI [19] | TGI [20] | TGI [21] | TGI [22] | TGI [23] | TGI [24] | TGI [25] | TGI [26] | TGI [27] | TGI [28] | TGI [29] | TGI [30] | TGI [31] | TGI [32] | TGI [33] | TGI [34] | TGI [35] | TGI [36] | TGI [37] | TGI [38] | TGI [39] | TGI [40] | TGI [41] | TGI [42] | TGI [43] | TGI [44] | TGI [45] | TGI [46] | TGI [47] | TGI [48] | TGI [49] | TGI [50] | TGI [51] | TGI [52] | TGI [53] | TGI [54] | TGI [55] | TGI [56] | TGI [57] | TGI [58]

Source: PubChem BioAssay (NCI)
